Holding throughout (assay): DTP human tumour cell line panel, 48 h
The subject of experiment [1] is CAKI-1 renal.
For experiment [2], the system named is SF-268 CNS.
The test system of experiment [3] is OVCAR-5 ovarian.
In experiment [4] the test system is COLO 205 colon.
Experiment [5] has as its system SW-620 colon.
Experiment [6] deals with HOP-62 NSCLC.
In experiment [7] the test system is CCRF-CEM leukemia.
In experiment [8] the test system is LOX IMVI melanoma.
The subject of experiment [9] is NCI-H23 lung.
Experiment [10] relates to U251 CNS.

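48-hour exposure; five concentrations; linearly interpolated endpoints. Abbreviation: GI50, concentration required for 50% inhibition of growth. Definition used: TGI = concentration required for complete inhibition of growth.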

In general, TGI refers to the concentration at which net growth stops. Low readings indicate greater sensitivity of the cells, high ones lower sensitivity of the cells. The term GI50 denotes the concentration that inhibits growth by half.

Consider `O=c1c2cc(S(=O)(=O)O)ccc2nc(COc2ccc(Oc3ccc(Cl)cc3Cl)cc2)n1-c1ccc(Oc2ccc(Cl)cc2)cc1Cl`, for which the TGI is greater than 100 µM in experiment [1]; 26 µM in experiment [2]; 55.1 µM in experiment [3]; 34 µM in experiment [4]; 50.4 µM in experiment [5]; 46 µM in [6]. For the same molecule, the TGI in experiment [7] is greater than 100 µM; in [8], 30.2 µM; in experiment [9], 43 µM; in experiment [10] it was 30.1 µM.

On to `COC(=O)C1=C(OC(=O)/C(=C/c2ccc(Cl)cc2)c2ccc(Cl)cc2)C(C(=O)OC)[C@]2(O)[C@@H](C(=O)OC)[C@H]1C[C@@H](c1ccccc1)[C@@H]2C(=O)OC` (some centres not stated), for which the TGI in experiment [1], in experiment [2], in experiment [3], in experiment [4], in experiment [5] and in experiment [6] was greater than 100 µM in each case. Besides, the TGI in [8], in experiment [9] and in experiment [10] was greater than 100 µM in each case.

For `Cc1c(-c2ccccc2)[nH]c2cc(Cl)ccc2c1=O`, the TGI in [1] was greater than 100 µM; in [2], greater than 100 µM; in [3], greater than 100 µM; in experiment [6], 60 µM; in [7], greater than 100 µM; in experiment [8], greater than 100 µM. In addition, the TGI is greater than 100 µM in [9] and 78.1 µM in experiment [10].

With `C=C(C)C1Cc2c(c3ccccc3n(C)c2=O)O1` (configuration not stated), the TGI in experiment [1], in experiment [2], in experiment [4], in [5], in experiment [7] and in [8] was greater than 100 µM in each case. Moreover, the TGI in [9] and in [10] was greater than 100 µM in each case.

Turning to `CCOC(=O)c1c(C)n(-c2ccc(Cl)cc2)c2c1cc(O)c1[nH]c3c(c12)CCCC3`, the concentration for total growth inhibition (TGI) in experiment [1], in experiment [2], in [3], in experiment [4], in experiment [5] and in [6] was greater than 100 µM in each case. Also, the TGI in experiment [7], in experiment [8], in [9] and in experiment [10] was greater than 100 µM in each case.

As for `CC1=C(O)C2=C(C(=O)C1=O)[C@@H](C)CC[C@@H]2[C@@H](C)C/C=C/C(C)(C)O`, the TGI in experiment [1], in experiment [2], in experiment [3], in experiment [4], in experiment [5] and in experiment [6] was greater than 100 µM each time. For the same molecule, the TGI in experiment [7], in [8], in [9] and in experiment [10] was greater than 100 µM each time.

In the case of `COC(=O)c1c(C)n([O-])c2cc(Cl)c(Cl)cc2[n+]1=O`, the TGI in experiment [1] was 61 µM; in [2], greater than 100 µM; in experiment [3] it was greater than 100 µM; in experiment [4], 25.8 µM; in experiment [5], greater than 100 µM; in [6], greater than 100 µM. Further, the TGI in [7] was 42.3 µM; in [8] it was 27.8 µM; in [9], greater than 100 µM; in [10], greater than 100 µM.

For `c1ccc(-c2nc(N3CCNCC3)c3oc(-c4ccccc4)nc3n2)cc1`, the GI50 in experiment [1] is 1.66 µM; in [2], 1.73 µM; in experiment [3], 1.69 µM; in experiment [4], 2.14 µM; in experiment [5], 1.35 µM; in experiment [6], 2.26 µM. The GI50 in [7] is 1.63 µM; in [9] it was 1.76 µM. Moreover, the TGI in experiment [1] worked out at 3.18 µM; in experiment [2], 3.46 µM; in [3] it was 3.08 µM; in [4], 4.88 µM; in experiment [5], 2.94 µM; in [6] it was 4.81 µM. Besides, the TGI in experiment [7] came out at 4.08 µM; in [9] it was 3.39 µM.

For the molecule `Nc1[nH]c(=O)nc2c1cnn2C1CCCCO1` (configuration not stated), the TGI in [1], in experiment [2], in [3], in experiment [4], in experiment [5] and in experiment [7] was greater than 100 µM throughout. Besides, the TGI in [8], in experiment [9] and in experiment [10] was greater than 100 µM throughout.

As for `CC(C)C(C(=O)O)N1C(=O)c2ccccc2C1=O` (configuration not stated), the TGI in experiment [1], in experiment [2], in experiment [3], in experiment [4], in [5] and in experiment [6] was greater than 100 µM throughout. The TGI in experiment [7], in experiment [8], in experiment [9] and in experiment [10] was greater than 100 µM throughout.

As to `Cc1cc(C)nc(NS(=O)(=O)c2ccc(NC(=O)c3cccc4c(Nc5ccc(S(=O)(=O)Nc6cc(C)on6)cc5)c5ccccc5nc34)cc2)n1`, the TGI in experiment [2] is 65.2 µM; in experiment [3] it was 34 µM; in [6], 45.4 µM; in experiment [7], 75.7 µM; in experiment [8], 35.6 µM; in [9], 42.6 µM. In addition, in experiment [10], the TGI was 40.2 µM.

On to `CCCC1CCC(=C2C(=O)CCC2=O)O1` (configuration not stated), for which the TGI in [1], in experiment [2], in [3], in experiment [4], in [5] and in experiment [6] was greater than 100 µM throughout. Moreover, the TGI in experiment [7], in experiment [8], in experiment [9] and in experiment [10] was greater than 100 µM in each case.

As to `COc1cc(C(C)O)c[n+](Cc2ccccc2)c1` (configuration not stated), the TGI in experiment [1], in experiment [2], in experiment [3], in experiment [4], in experiment [5] and in [6] was greater than 100 µM in each case. Further, the TGI in experiment [7], in [8], in experiment [9] and in [10] was greater than 100 µM each time.

Source of the values: PubChem BioAssay (NCI).
